# Test results reported in the supplement of paper PMC10307832.
# Assays:
# Test in all cases: relative viability (nuclei count vs DMSO), 5 days (fraction); higher = more cells survive
# XMD13-2 + Luminespib = compound: C1CC1C(=O)NC2=NNC3=C2C=CC(=C3)C4=CC(=CC=C4)C(=O)NC5CC5 [XMD13-2] + CCNC(=O)c1noc(-c2cc(C(C)C)c(O)cc2O)c1-c1ccc(CN2CCOCC2)cc1 [Luminespib] (partner 0.01 µM)
# Procedure, shortened: (§1)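 Medians of duplicate plates are given as relative viability. That measure is the nuclei count in treated wells divided by the count in vehicle wells. Counts were taken on 4× images of lung cancer cell lines in 1536-well plates, 5 days after pin-tool dosing the day after seeding with one drug alone or a fixed anchor-drug dose plus five library-drug doses (not always all listed) in √10 steps.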
# XMD13-2 + Olaparib = compound: C1CC1C(=O)NC2=NNC3=C2C=CC(=C3)C4=CC(=CC=C4)C(=O)NC5CC5 [XMD13-2] + O=C(c1cc(Cc2n[nH]c(=O)c3ccccc23)ccc1F)N1CCN(C(=O)C2CC2)CC1 [Olaparib] (partner 8 µM)
# Procedure, shortened: as §1
# ALW-II-49-7 + Olaparib = compound: Cc1ccc(C(=O)Nc2cccc(C(F)(F)F)c2)cc1Nc1cncc(C(N)=O)c1 [ALW-II-49-7] + O=C(c1cc(Cc2n[nH]c(=O)c3ccccc23)ccc1F)N1CCN(C(=O)C2CC2)CC1 [Olaparib] (partner 8 µM)
# Procedure, shortened: as §1
Cell Line,relative viability (XMD13-2 + Luminespib; first compound 0.05 µM),relative viability (XMD13-2 + Luminespib; first compound 0.1581 µM),relative viability (XMD13-2 + Luminespib; first compound 0.5 µM),relative viability (XMD13-2 + Luminespib; first compound 1.581 µM),relative viability (XMD13-2 + Luminespib; first compound 5 µM),relative viability (XMD13-2 + Olaparib; first compound 0.05 µM),relative viability (XMD13-2 + Olaparib; first compound 0.1581 µM),relative viability (XMD13-2 + Olaparib; first compound 0.5 µM),relative viability (XMD13-2 + Olaparib; first compound 1.581 µM),relative viability (XMD13-2 + Olaparib; first compound 5 µM),relative viability (ALW-II-49-7 + Olaparib; first compound 0.08 µM),relative viability (ALW-II-49-7 + Olaparib; first compound 0.253 µM),relative viability (ALW-II-49-7 + Olaparib; first compound 0.8 µM),relative viability (ALW-II-49-7 + Olaparib; first compound 8 µM),relative viability (ALW-II-49-7 + Olaparib; first compound 2.53 µM)
NCI-H1395,0.669,0.668,0.809,0.66,0.83,0.48,0.493,0.46,0.477,0.504,0.473,0.449,0.435,0.459,–
PC-14,0.133,0.192,0.118,0.151,0.154,0.299,0.259,0.266,0.271,0.467,0.282,0.227,0.264,0.273,0.253
BEN,0.53,0.437,0.384,0.246,0.289,0.925,0.94,0.941,1.12,0.995,1.12,1.11,1.18,0.98,0.548
EPLC-272H,0.414,0.125,0.734,0.199,0.124,0.976,0.854,0.748,0.528,0.172,0.609,0.468,0.506,0.64,0.711
LK-2,0.181,0.17,0.179,0.205,0.172,0.831,0.911,0.807,0.642,0.668,0.803,0.682,0.576,0.817,–
ChaGo-K-1,0.585,0.582,0.603,0.617,0.476,0.439,0.436,0.438,0.387,0.358,0.384,0.427,0.394,0.39,0.411
HCC-827,0.809,0.424,0.725,0.576,0.661,0.722,0.661,0.575,0.609,0.421,0.624,0.625,0.59,0.59,0.542
NCI-H1993,1,0.663,0.833,0.801,1.09,1.1,0.924,0.507,0.813,0.952,1.01,1.02,0.928,1.32,1.06
NCI-H647,0.183,0.289,0.183,0.229,0.147,0.622,0.435,0.545,0.602,0.234,0.619,0.386,0.636,0.367,0.51
NCI-H522,1.02,1.41,1.18,1.13,1.06,0.632,0.7,0.618,0.473,0.65,0.764,0.547,0.734,0.742,0.635
NCI-H460,0.0335,0.0365,0.0372,0.0316,0.0324,0.546,0.493,0.412,0.526,0.566,0.435,0.704,0.414,0.325,0.143
EMC-BAC-2,1.36,1.1,1.05,1.14,1.04,0.575,0.526,0.499,0.465,0.439,0.482,0.475,0.445,0.367,0.396
NCI-H23,0.222,0.2,0.21,0.204,0.21,0.336,0.342,0.365,0.3,0.281,0.328,0.363,0.383,0.298,0.294
NCI-H1793,0.277,–,0.168,0.172,0.175,1.23,0.812,0.95,0.927,0.983,0.977,0.834,0.785,0.753,0.911
A-427,1.08,0.846,0.94,0.945,0.849,0.814,0.688,0.728,–,0.485,0.673,0.831,0.81,0.71,0.672
ABC-1,0.477,0.919,0.611,0.545,0.325,0.925,0.869,1.08,–,0.688,0.636,0.828,0.744,0.921,0.838

Cell Line,relative viability (XMD13-2 + Luminespib; first compound 0.05 µM),relative viability (XMD13-2 + Luminespib; first compound 0.1581 µM),relative viability (XMD13-2 + Luminespib; first compound 0.5 µM),relative viability (XMD13-2 + Luminespib; first compound 1.581 µM),relative viability (XMD13-2 + Luminespib; first compound 5 µM),relative viability (XMD13-2 + Olaparib; first compound 0.05 µM),relative viability (XMD13-2 + Olaparib; first compound 0.1581 µM),relative viability (XMD13-2 + Olaparib; first compound 0.5 µM),relative viability (XMD13-2 + Olaparib; first compound 1.581 µM),relative viability (XMD13-2 + Olaparib; first compound 5 µM),relative viability (ALW-II-49-7 + Olaparib; first compound 0.08 µM),relative viability (ALW-II-49-7 + Olaparib; first compound 0.253 µM),relative viability (ALW-II-49-7 + Olaparib; first compound 0.8 µM),relative viability (ALW-II-49-7 + Olaparib; first compound 8 µM),relative viability (ALW-II-49-7 + Olaparib; first compound 2.53 µM)
NCI-H322M,0.874,0.834,0.804,0.89,1.23,0.807,0.848,0.553,–,1.04,0.288,0.742,0.638,0.716,0.732
COR-L23,0.883,0.581,0.592,0.769,0.607,0.327,0.36,0.33,0.336,0.387,0.327,0.343,0.327,0.292,0.313
SW 900,0.192,0.174,0.2,0.178,0.19,0.772,0.853,0.922,0.753,0.806,0.652,0.759,–,0.931,0.741
NCI-H2085,0.447,0.494,0.491,0.497,0.423,0.771,0.695,0.805,0.728,0.768,0.701,0.776,0.756,0.763,0.844
NCI-H2087,0.164,0.159,0.217,0.198,0.152,0.643,0.607,0.691,0.562,0.567,0.583,0.569,0.463,0.514,0.578
NCI-H2126,0.899,0.977,0.957,0.832,0.92,0.922,0.863,0.894,0.821,0.929,0.823,0.882,0.979,0.87,0.891
SK-LU-1,0.217,0.239,0.227,0.194,0.211,0.499,0.444,0.514,0.444,0.422,0.543,0.49,0.451,0.362,–
LCLC-97TM1,0.883,0.743,0.811,0.667,0.677,0.498,0.507,0.336,0.263,0.173,0.429,0.442,0.399,0.353,0.279
NCI-H838,0.398,0.308,0.407,0.235,0.347,0.865,0.749,0.817,0.774,0.699,0.715,0.744,0.881,0.7,0.844
NCI-H520,0.258,0.221,0.226,0.234,0.236,0.333,0.325,0.498,0.36,0.307,0.306,0.339,0.33,0.328,0.31
NCI-H2347,0.405,0.342,0.486,0.54,0.791,0.608,0.538,0.598,0.532,0.601,0.596,0.568,0.562,0.556,0.545
NCI-H441,0.314,0.382,0.375,0.432,0.315,0.545,0.578,0.534,0.477,0.495,0.592,0.52,0.592,0.383,0.47
NCI-H2342,0.721,0.712,0.642,0.767,0.806,0.424,0.383,0.386,0.403,0.463,0.47,0.436,0.394,0.396,0.357
NCI-H1944,0.797,0.756,0.758,0.899,0.697,0.454,0.402,0.408,0.55,0.414,0.451,0.391,0.381,0.374,0.375
NCI-H2405,0.853,0.634,0.578,0.641,0.633,0.931,0.874,0.931,–,0.843,0.856,0.97,0.86,0.785,0.811
HCC-15,0.379,0.492,0.479,0.238,0.192,0.706,0.66,0.785,0.669,0.661,0.757,0.689,0.719,0.648,0.577
